How the values were obtained:
[1] = Example 8: body weight of ECA109 tumor-bearing mice; assay type: in vivo, nude mice; settings: DDP 5 mg/kg i.p. QW×4
Source text: The assay animals, calculation of tumor volume (TV), end of assay, data recording, calculation formula of tumor growth inhibition rate TGI (%), and statistical analysis method were the same as those in Example 3; the preparation of the administration formulation of the compound of formula (I) was the same as that in Example 5. […] The cells were pipetted with a pipette to disperse them evenly, and the cells were put into a 50-mL centrifuge tube, which was placed in an ice box. A 1-mL syringe was used to draw the cell suspension, which was injected subcutaneously into the axilla of the front right limb of a […]. Each animal was inoculated with 200 μL (1.0×10^7 cells/mouse) to establish an ECA109 transplanted tumor model in nude mice. After the inoculation, the animal status and tumor growth were regularly observed, and the tumor diameter was measured using an electronic vernier caliper. The data were input into an Excel spreadsheet to calculate the tumor volume. When the tumor volume reached 100 to 300 mm^3, animals in good health and with similar tumor volumes were selected and divided into groups using randomized block method. The day of grouping was regarded as the first day of the assay (D1). After the start of the assay, the tumor diameter was measured twice a week, the tumor volume was calculated, and the animal body weight was also weighed and recorded. [table]

ICR mice = experiment: Example 5: acute toxicity, single gavage administration; assay type: in vivo
Experimental: (§1) Preparation of the administration formulation of the test sample: A mixture of the compound of formula (I) and ethanol/ethyl acetate (v/v, 1/3) with a ratio of 1:1.5 was dissolved by sonication at room temperature. 2.25 equivalents of compound of formula (I) of PVP were added, and the mixture was stirred vigorously at room temperature for 20 minutes. Then, 2 equivalents of the compound of formula (I) of lactose were added, and the mixture was stirred vigorously at room temperature for 20 minutes. The mixture was dried in an oven at 50° C. and then pulverized to give a yellow powder formulation of the compound of formula (I). Then, an appropriate amount of the formulation of compound of formula (I) was weighed, and an appropriate volume of 0.5% CMC-Na aqueous solution was added. The mixture was vortexed and sonicated to mix evenly (if necessary, shear emulsification may be performed), to give an administration formulation of the test sample. The administration formulation was prepared twice a week, and 3 or 4 days of dosage was prepared each time, which was divided and stored in a 0-8° C. refrigerator for later use. When the test sample was used, a final volume mark was marked on a container, and a required amount of the test sample was weighed (weighing weight of the test sample=theoretical dosage*conversion factor) into a clean and dry container. An appropriate amount of solvent was firstly added, and the mixture was stirred and mixed thoroughly, and sonicated if necessary. The solvent was further added to the final volume mark to dilute and mix evenly, to give a visually uniform formulation. […] The administration formulation of the test sample was stable within 24 hours when being stored airtightly at room temperature in dark, and was stable within 8 days when being stored airtightly at 2° C. to 8° C. in dark.
(§2) • Species: ICR mice • Grade: SPF grade
(§3) Number and gender of the animals being used: 40, half male and half female;
(§4) Body weight: The body weight of the female group was from 25.9 to 29.7 g; the body weight of the male group was from 27.7 to 30.8 g;
(§5) Age at the time of administration: 38 to 44 days (female), 31 to 44 days (male)
(§6) Route of Administration: Gavage Administration
(§7) Administration frequency: once/day
(§8) Administration period: 1 day
(§9) The dosage was calculated based on the body weight of the animals weighed on D1 after fasting (with water access) overnight. The feed was given approximately 2 hours after drug administration.
(§10) The administration formulation in each group was stirred at room temperature for at least 10 minutes, and suspended uniformly with visual inspection before the administration. The administration formulation was required to be continually stirred during the administration.
(§11) Observation indicators: observation of general physical signs, body weight, food intake, animal anatomy and histopathological examination were included.

[2] = as above; assay type: in vivo, ICR mice; settings: both sexes, mouse, in vivo, po, ICR mice, single gavage administration
Experimental: as §1, §2, §3, §4, §5, §6, §7, §8, §9, §10, §11

## N.N.[Cl][Pt][Cl] [DDP, cisplatin]
[1]; D1
  Mean animal body weight: 20.8 ± 0.4 g
[1]; D5
  Mean animal body weight: 20.3 ± 0.6 g
  body weight loss rate: (2.1%)
[1]; D8
  Mean animal body weight: 20.5 ± 0.4 g
  body weight loss rate: (1.4%)
[1]; D12
  Mean animal body weight: 19.4 ± 0.4 g
  body weight loss rate: (6.7%)
[1]; D15
  Mean animal body weight: 19.9 ± 0.3 g
  body weight loss rate: (4.3%)
[1]; D19
  Mean animal body weight: 19.0 ± 0.3 g
  body weight loss rate: (8.5%)
[1]; D22
  Mean animal body weight: 19.5 ± 0.4 g
  body weight loss rate: (5.9%)
[1]; D26
  Mean animal body weight: 17.7 ± 0.3 g
  body weight loss rate: (15%)
[1]; D29
  Mean animal body weight: 17.9 ± 0.3 g
  body weight loss rate: (14%)
[1]; D33
  Mean animal body weight: 18.7 ± 0.4 g
  body weight loss rate: (10%)
[1]; D36
  Mean animal body weight: 18.7 ± 0.3 g
  body weight loss rate: (10%)

## COC1=C(OC)C(=O)C(CCCCCCCCCCOC(=O)Cc2c(C)n(C(=O)c3ccc(Cl)cc3)c3ccc(OC)cc23)=C(C)C1=O [compound of formula (I)]
ICR mice; 300 mg/kg/d single gavage
  clinical observation (general physical signs): no obvious abnormal symptoms
ICR mice; 1000 mg/kg/d single gavage, animals other than the dead one
  clinical observation (general physical signs): No obvious abnormal symptoms
ICR mice; 3000 mg/kg/d single gavage, D3, vs vehicle control (P<0.05)
  body weight of male animals: significant decrease
ICR mice; 3000 mg/kg/d single gavage, return to normal on D8
  clinical observation (general physical signs): piloerection symptoms from D2 to D7
ICR mice; each dosage group (300, 1000, 3000 mg/kg/d) vs vehicle control
  food intake: basically consistent
ICR mice; each group, naked eye observation of organs and tissues
  gross anatomy examination: No obvious abnormalities
[2]
  LD50 at 1 day: > 3000 mg/kg
[2]; read-out: maximum tolerated dose (MTD)
  MTD at 1 day: 300 mg/kg/day

Reference: patent publication US20250270170A1, “2,3-DIMETHOXY-5-METHYL-1,4-BENZOQUINONE ALKYL ALCOHOL DERIVATIVE AND USE THEREOF” (BEIJING ANJIANXI BIO-MEDICAL TECHNOLOGY CO., LTD., priority 2021, published 2025)
